Blank lines part the entries; values can stand above or below the molecule they belong to.
Assays:
[1] = test system: cycloisomaltotetraose-forming enzyme from Agreia sp. D1110 (NITE BP-02815); test: Substrate specificity of cycloisomaltotetraose-forming enzyme (TLC of reaction mixtures); type: biochemical; details: substrate 1% (w/v), 20 units/g-solid of enzyme, pH 6.0, 40°C, 24 hours; further: key: - : Not formed; + : Slightly formed; ++ : Formed; +++ : Significantly formed
Description: Substrate specificity of cycloisomaltotetraose-forming enzyme was investigated using various saccharides as substrates. Aqueous solutions containing D-glucose, maltose, isomaltose, panose, isomaltotriose, isomaltotetraose, isomaltopentaose, isomaltohexaose, isomaltoheptaose, dextran T10 (average molecular weight: 10,000, commercialized by Pharmacosmos A/s., Denmark), dextran T70 (average molecular weight: 70,000, commercialized by Pharmacosmos A/s., Denmark), or dextran T2000 (average molecular weight: 2,000,000, commercialized by Pharmacosmos A/s., Denmark) were prepared as substrate solutions. To each substrate solution, acetate buffer and calcium chloride were added to give final concentrations of 50 mM and 1 mM, respectively, and then resulting solutions were admixed with 20 units/g-solid of cycloisomaltotetraose-forming enzyme from Agreia sp. […] To examine the saccharides in each reaction mixture before and after the reaction, saccharides were separated by silica gel thin-layer chromatography (hereinafter, abbreviated as "TLC") using "[…] 60F254", a TLC aluminum plate (10 x 20 cm) and a solvent (2-propanol/1-butanol/water, volume ratio of 12:3:4) with two-times ascending method. The separated saccharides on the plate were detected by visualizing the spots with sulfate-methanol method, and the degree of forming cycloisomaltotetraose from each substrate and the products other than cycloisomaltotetraose were investigated.

[2] = test system: cycloisomaltotetraose-forming enzyme from Agreia sp. D1110 (NITE BP-02815); test: Action of cycloisomaltotetraose-forming enzyme on isomaltopentaose (TLC); type: biochemical; details: 1% (w/v) isomaltopentaose, 2.0 units/g-isomaltopentaose, pH 6.0, 40°C, 24 hours
Method: As a part of examining the substrate specificity of cycloisomaltotetraose-forming enzyme, the action of the enzyme on isomaltopentaose was investigated. To 0.5 mL of 50 mM acetate buffer (pH 6.0) containing 1% (w/v) of isomaltopentaose (prepared in Hayashibara Co., Ltd., Okayama, Japan, purity: 98.1% by weight) and 0.006% (w/v) hinokitiol as a preservative, 2.0 units/g-isomaltopentaose of a purified cycloisomaltotetraose-forming enzyme from Agreia sp. D1110 (NITE BP-02815), obtained by the method in Experiment 6, was added, and the resulting mixture was incubated at 40°C for 24 hours and then heated at 100°C for 10 min to inactivate the enzyme. To examine the reaction products in the reaction mixture, saccharides were separated by TLC using "KIESELGEL 60", a TLC aluminum plate (10 x 20 cm) and a solvent (acetonitrile/water/ethyl acetate/1-propanol, volume ratio of 85:70:20:50) and two-times ascending method. The separated saccharides on the plate were detected by visualizing the spots with sulfate-methanol method, and the reaction products formed from isomaltopentaose were investigated.

[3] = Digestivity test using small intestinal mucosal enzyme; type: in vitro ADME; details: rat, small intestine mucosal enzyme, 1% by weight, pH 6.0, 50 units/g-cycloisomaltotetraose, 37°C, read-out: residual rate (%) of cycloisomaltotetraose after the enzymatic reaction
Method: To the substrate solution, 50 units/g-cycloisomaltotetraose, as maltose-hydrolyzing activity, of small intestine mucosal enzyme (α-glucosidase) prepared from rat small intestine acetone powder, commercialized by Sigma-Aldrich Co., was added, and the resulting mixture was incubated at 37°C for 24 hours and then heated at 100°C for 10 min to inactivate the enzyme. The amounts of cycloisomaltotetraose in the solution before and after the reaction were determined by HPLC, and the residual rate (%) of cycloisomaltotetraose after the enzymatic reaction, i.e., (the amount after the reaction/the amount before the reaction) x 100, was measured.

[4] = Thermal stability of cycloisomaltotetraose in aqueous solution; type: physicochemical; details: 7% (w/v) aqueous solution, 120°C
Method: An aqueous cycloisomaltotetraose solution with a solid concentration of 7% (w/v) was prepared by dissolving the crystalline cycloisomaltotetraose preparation with a purity of 99.5% by weight, obtained in Experiment 3-1. Eight milliliters each of the aqueous solution was taken in a glass centrifuge tube with a screw cap, sealed, and then heated for 30 to 90 min at 120°C. The solutions before heating and those after heating for various times were subjected to the measurement for the degree of coloring and for the cycloisomaltotetraose purity by HPLC method. The degree of coloring was defined as the absorbance at 480 nm measured by using a 1-cm cell.

[5] = pH stability of cycloisomaltotetraose; type: physicochemical; details: 4% (w/v), 100°C; for Degree of coloring (A480nm): 24 hours; for remaining at 24 h: read-out: Purity of cycloisomaltotetraose (% by weight)
Method: The crystalline cycloisomaltotetraose preparation obtained in Experiment 3-1 was dissolved in various buffers to make 7 kinds of aqueous cycloisomaltotetraose solutions with a cycloisomaltotetraose concentration of 4% (w/v), and with the pH adjusted to 3 to 9. Eight milliliters each of the aqueous solution was taken into a glass centrifuge tube with a screw cap, sealed, and heated at 100°C for 24 hours. After cooling them, the measurement for the degree of coloring degree of those aqueous solution and for the cycloisomaltotetraose purity were carried out in the same manner in Experiment 16.

α-glucosidase = target: T1, α-glucosidase (Aspergillus niger, UniProt P56526); test: Preliminary test: hydrolysis by α-glucosidase; type: biochemical; details: preliminary test using a small amount of the reaction product
T1 construct: purchased Amano Enzyme Co., Ltd. TRANSGLUCOSIDASE L Amano
T1 sequence (P56526 26-985): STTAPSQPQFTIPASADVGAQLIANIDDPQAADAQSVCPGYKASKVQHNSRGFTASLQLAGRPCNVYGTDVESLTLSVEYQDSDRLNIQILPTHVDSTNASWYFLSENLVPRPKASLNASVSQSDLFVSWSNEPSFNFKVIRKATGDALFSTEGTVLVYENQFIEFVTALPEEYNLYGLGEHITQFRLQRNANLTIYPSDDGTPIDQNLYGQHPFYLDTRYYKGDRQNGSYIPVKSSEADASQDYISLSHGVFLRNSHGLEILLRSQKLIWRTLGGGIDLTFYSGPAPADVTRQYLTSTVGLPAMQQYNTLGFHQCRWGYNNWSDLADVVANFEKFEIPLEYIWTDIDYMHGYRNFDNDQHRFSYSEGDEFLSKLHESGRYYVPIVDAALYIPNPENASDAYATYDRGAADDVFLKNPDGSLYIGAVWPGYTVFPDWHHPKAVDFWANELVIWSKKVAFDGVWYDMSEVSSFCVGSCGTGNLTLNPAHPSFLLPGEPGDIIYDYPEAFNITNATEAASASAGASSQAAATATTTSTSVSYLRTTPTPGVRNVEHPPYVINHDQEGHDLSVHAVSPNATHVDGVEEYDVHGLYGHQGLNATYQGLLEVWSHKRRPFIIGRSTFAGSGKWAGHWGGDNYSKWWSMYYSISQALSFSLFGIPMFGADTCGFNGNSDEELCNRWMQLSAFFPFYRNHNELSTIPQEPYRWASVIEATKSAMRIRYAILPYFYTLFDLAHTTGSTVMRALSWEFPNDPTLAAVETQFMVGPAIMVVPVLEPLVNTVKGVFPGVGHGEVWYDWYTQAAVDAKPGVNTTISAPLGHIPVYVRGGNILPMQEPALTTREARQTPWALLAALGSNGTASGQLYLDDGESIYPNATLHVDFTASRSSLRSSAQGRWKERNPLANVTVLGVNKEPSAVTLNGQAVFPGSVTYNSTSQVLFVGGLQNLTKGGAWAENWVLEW
Method: (§1) The enzymatic reaction product containing Unknown Saccharide I, obtained in Experiment 1-2, was adjusted to pH 5.0, admixed with 100 U/g-solid of "TRANSGLUCOSIDASE L Amano", α-glucosidase produced by Amano Enzyme Co., Ltd., and 1,000 U/g-solid of glucoamylase commercialized by Nagase ChemteX Co., Ltd., and then reacted at 50°C for 4 days. After the reaction, the reaction was stopped by heating the reaction mixture at about 100°C for 10 min. The saccharides in the resulting reaction mixture were analyzed by analytical high-performance liquid chromatography (hereinafter, abbreviated as "analytical HPLC"). As a result, D-glucose and Unknown Saccharide I were detected at elution times of 58.7 min and 49.4 min, respectively. The saccharide composition of the reaction mixture is 30.0% (w/w) of D-glucose, 65.5% (w/w) of Unknown Saccharide I, and 4.5% (w/w) of partial dextran hydrolysates containing isomaltooligosaccharides.

glucoamylase = test: Preliminary test: hydrolysis by glucoamylase; type: biochemical; details: preliminary test using a small amount of the reaction product
Method: as §1

[6] = Preliminary test: alkaline treatment; type: physicochemical; details: preliminary test using a small amount of the reaction product

Compound: OC[C@H]1O[C@H](O[C@H]2[C@H](O)[C@@H](O)C(O)O[C@@H]2CO)[C@H](O)[C@@H](O)[C@@H]1O (mixture of isomers) [Maltose, maltose]
Formation of cycloisomaltotetraose [1]: -

Compound: OC[C@H]1OC(O)[C@H](O)[C@@H](O)[C@@H]1O (stereo partly drawn) [D-Glucose, D-glucose]
Formation of cycloisomaltotetraose [1]: -

Compound: OC[C@H]1O[C@H](OC[C@H]2O[C@H](OC[C@H]3O[C@H](OC[C@H]4O[C@H](OC[C@H]5O[C@H](OC[C@H]6O[C@H](OC[C@H]7OC(O)[C@H](O)[C@@H](O)[C@@H]7O)[C@H](O)[C@@H](O)[C@@H]6O)[C@H](O)[C@@H](O)[C@@H]5O)[C@H](O)[C@@H](O)[C@@H]4O)[C@H](O)[C@@H](O)[C@@H]3O)[C@H](O)[C@@H](O)[C@@H]2O)[C@H](O)[C@@H](O)[C@@H]1O (stereo partly drawn) [Isomaltoheptaose, isomaltoheptaose]
Formation of cycloisomaltotetraose [1]: +++

Compound: OC[C@H]1O[C@H](OC[C@H]2O[C@H](OC[C@H]3O[C@H](OC[C@H]4O[C@H](OC[C@H]5O[C@H](OC[C@H]6OC(O)[C@H](O)[C@@H](O)[C@@H]6O)[C@H](O)[C@@H](O)[C@@H]5O)[C@H](O)[C@@H](O)[C@@H]4O)[C@H](O)[C@@H](O)[C@@H]3O)[C@H](O)[C@@H](O)[C@@H]2O)[C@H](O)[C@@H](O)[C@@H]1O (stereo partly drawn) [Isomaltohexaose, isomaltohexaose]
Formation of cycloisomaltotetraose [1]: +++

Compound: OC[C@H]1O[C@H](OC[C@H]2O[C@H](OC[C@H]3O[C@H](OC[C@H]4O[C@H](OC[C@H]5OC(O)[C@H](O)[C@@H](O)[C@@H]5O)[C@H](O)[C@@H](O)[C@@H]4O)[C@H](O)[C@@H](O)[C@@H]3O)[C@H](O)[C@@H](O)[C@@H]2O)[C@H](O)[C@@H](O)[C@@H]1O (stereo partly drawn) [Isomaltopentaose, isomaltopentaose]
Formation of cycloisomaltotetraose [1]: ++
reaction products formed from isomaltopentaose [2]: produces cycloisomaltotetraose with isomaltotetraose, also slightly isomaltotriose, isomaltose, glucose and high molecular glucans

Compound: O[C@@H]1[C@@H](O)[C@H]2OC[C@H]3O[C@H](OC[C@H]4O[C@H](OC[C@H]5O[C@H](OC[C@@H](O2)[C@H]1O)[C@H](O)[C@@H](O)[C@@H]5O)[C@H](O)[C@@H](O)[C@@H]4O)[C@H](O)[C@@H](O)[C@@H]3O [cycloisomaltotetraose, cyclo{→6)-α-D-glucopyranosyl-(1→6)-α-D-glucopyranosyl-(1→6)-α-D-glucopyranosyl-(1→6)-α-D-glucopyranosyl-(1→}]
remaining at 24 h [3]: 91.6%
Degree of coloring (A480nm) ([4]; heating time 0 min): 0.000 A480nm
Purity of cycloisomaltotetraose (% by weight) ([4]; heating time 0 min): 99.5 % by weight
Degree of coloring (A480nm) ([4]; heating time 30 min): 0.000 A480nm
Degree of coloring (A480nm) ([4]; heating time 60 min): 0.000 A480nm
Degree of coloring (A480nm) ([4]; heating time 90 min): 0.000 A480nm
remaining at 0.5 h ([4]; water, heating time 30 min, read-out: Purity of cycloisomaltotetraose (% by weight)): 99.5%
remaining at 1 h ([4]; water, heating time 60 min, read-out: Purity of cycloisomaltotetraose (% by weight)): 99.5%
remaining at 1.5 h ([4]; water, heating time 90 min, read-out: Purity of cycloisomaltotetraose (% by weight)): 99.5%
Degree of coloring (A480nm) ([5]; pH 3, Acetate buffer): 0.000 A480nm
remaining at 24 h ([5]; pH 3, Acetate buffer): 93.5%
Degree of coloring (A480nm) ([5]; pH 4, Acetate buffer): 0.000 A480nm
remaining at 24 h ([5]; pH 4, Acetate buffer): 99.4%
Degree of coloring (A480nm) ([5]; pH 5, Acetate buffer): 0.000 A480nm
remaining at 24 h ([5]; pH 5, Acetate buffer): 99.4%
Degree of coloring (A480nm) ([5]; pH 6, Tris-HCl buffer): 0.000 A480nm
remaining at 24 h ([5]; pH 6, Tris-HCl buffer): 99.4%
Degree of coloring (A480nm) ([5]; pH 7, Tris-HCl buffer): 0.000 A480nm
remaining at 24 h ([5]; pH 7, Tris-HCl buffer): 99.5%
Degree of coloring (A480nm) ([5]; pH 8, Tris-HCl buffer): 0.001 A480nm
remaining at 24 h ([5]; pH 8, Tris-HCl buffer): 99.5%
Degree of coloring (A480nm) ([5]; pH 9, Ammonium buffer): 0.000 A480nm
remaining at 24 h ([5]; pH 9, Ammonium buffer): 99.4%
hydrolysis by α-glucosidase (α-glucosidase): not hydrolyzed
hydrolysis by glucoamylase (glucoamylase): not hydrolyzed
decomposition by alkaline treatment [6]: not decomposed

The remaining lines, values ahead:

Formation of cycloisomaltotetraose [1]: -
Compound: OC[C@H]1O[C@H](OC[C@H]2OC(O)[C@H](O)[C@@H](O)[C@@H]2O)[C@H](O)[C@@H](O)[C@@H]1O (stereo partly drawn) [Isomaltose, isomaltose]

Formation of cycloisomaltotetraose [1]: +
Compound: OC[C@H]1O[C@H](OC[C@H]2O[C@H](OC[C@H]3O[C@H](OC[C@H]4OC(O)[C@H](O)[C@@H](O)[C@@H]4O)[C@H](O)[C@@H](O)[C@@H]3O)[C@H](O)[C@@H](O)[C@@H]2O)[C@H](O)[C@@H](O)[C@@H]1O (stereo partly drawn) [Isomaltotetraose, isomaltotetraose]

Formation of cycloisomaltotetraose [1]: -
Compound: OC[C@H]1O[C@H](OC[C@H]2O[C@H](OC[C@H]3OC(O)[C@H](O)[C@@H](O)[C@@H]3O)[C@H](O)[C@@H](O)[C@@H]2O)[C@H](O)[C@@H](O)[C@@H]1O (stereo partly drawn) [Isomaltotriose, isomaltotriose]

Formation of cycloisomaltotetraose [1]: -
Compound: OCC1OC(OCC2OC(OC3C(CO)OC(O)C(O)C3O)C(O)C(O)C2O)C(O)C(O)C1O (stereo not drawn) [Panose, panose]

Source: EP3895711A1, “CYCLOISOMALTOTETRAOSE, CYCLOISOMALTOTETRAOSE PRODUCTION ENZYME, AND PRODUCTION METHODS AND USES THEREOF” (Hayashibara Co., Ltd., priority 2018, dated 2020)
